In patent US8338454B2, “Nitrile derivatives and their pharmaceutical use and compositions” (Cellceutix Corporation, priority 2009, dated 2012):
Where two headings read alike, the source gives them in different places.

Experiments:
[1] = test system: NCI-H1975 multi-drug resistant human lung carcinoma; experiment: Xenograft efficacy in nude mice; format: in vivo
Method: (§1) The cells were cultured in 10% FBS RPMI medium. The cells were obtained at passage 5 for further expansion for this efficacy study. Nude mice (Nu/Nu), both male (20 to 24 g) and female (19 to 22 g), were purchased at 6 to 8 weeks old from Charles River Laboratories. These mice were naïve at the beginning of the study and were identified by ear punching. The mice were left for five days to become acclimated to their new environment. Mice were implanted with human tumor cells in a 50:50 mix of RPMI:Matrigel subcutaneously in the right flank of each mouse. Dosing began when tumors reached an average volume of 100 mm^3.
(§2) The mice were observed daily for any adverse affects. Mice body weights were taken prior to treatment and every other day during and post treatment. If an animal became unwell, any treatment of that animal was suspended. If there was no recovery, the animal was sacrificed. […] Mice tumor size measurements were taken prior to treatment and every other day during and post treatment. The same scientist was responsible for taking the tumor measurements throughout the study.
Nude mice were implanted with 5×10^6 tumor cells in a 50:50 mix of RPMI:Matrigel subcutaneously in the right flank of each mouse. Dosing began when tumors reached an average volume of 100 mm^3, usually reached by day 14 post implant, and was carried out for 8 days. A necropsy was performed 41 days after treatment ended.
(§3) The dosing procedure began the day the mice were randomized and grouped. The dose was administered, as discussed in the following paragraph, on days 7, 9 and 11 following tumor implantation. Each dose was administered via the tail vein.
Efficacy of Kevetrin 200 mg/kg Days 7, 9, & 11 Against Taxol at 22 mg/kg on Days 7, 9, 11 & 13 in NCI-H1975 Multi-Drug Resistant Human Lung Carcinoma.
The animals were implanted subcutaneously with another multi-drug resistant human lung carcinoma and the compounds were injected IV as per the schedule. […] The tumor growth was delayed about 9 days for Taxol treated animals and about 24 days more than the untreated controls. The results are depicted in FIG. 9.

[2] = test system: A549 multi-drug resistant human lung carcinoma; experiment: Xenograft efficacy in nude mice; format: in vivo
Method: Nude mice were implanted with 5×10^6 tumor cells in a 50:50 mix of RPMI:Matrigel subcutaneously in the right flank of each mouse. Dosing began when tumors reached an average volume of 100 mm^3, usually reached by day 14 post implant, and was carried out for 8 days. […]

[3] = test system: HCT-15 human colon carcinoma with P-glycoprotein mediated resistance; experiment: Xenograft efficacy in nude mice; format: in vivo
Method: HCT-15 tumor bearing nude mice were treated with either 200 mg/kg Kevetrin IV on Days 7, 9, 11 or 22 mg/kg Taxol on Days 7, 9, 11 and 13 post tumor.

[4] = test system: head and neck cancer cell lines; experiment: Activity spectra, MTT assay; format: cell-based, human; details: three head and neck cancer cell lines
Method: (§4) The indicated values are calculated as follows: log(IC50 individual cell line−IC50 average). Negative values indicate that the cell line is more sensitive than the average, whereas positive values indicate that the cell line is more resistant than the average. […] The activity of Kevetrin was more marked than that of cisplatin toward lung, head and neck, breast, ovary, and colon cell lines.

[5] = test system: all tumor cell lines tested; experiment: Activity spectra, MTT assay; format: cell-based, human; details: read-out: average IC50 for all cell lines tested
Method: The indicated values are calculated as follows: log(IC50 individual cell line−IC50 average). Negative values indicate that the cell line is more sensitive than the average, whereas positive values indicate that the cell line is more resistant than the average.
as §4

[6] = Weight loss due to Kevetrin in tumor bearing mice; format: in vivo
Method: Animal weights of mice following treatment with either 100 or 200 mg/kg Kevetrin IV on Day 0 are shown.
as §2, §3
When Kevetrin was administered intravenously (IV) to animals bearing tumors, the weight loss due to the administration of the compound was within acceptable limits. […] Both these concentrations may be used to establish the efficacy of Kevetrin.

HT-29 colon carcinoma = experiment: Xenograft efficacy in nude mice; format: in vivo
Method: HT-29 tumor bearing nude mice were treated with either 200 mg/kg Kevetrin IV or 5-FU on Days 7, 9, and 11.
as §1, §2
(§5) Nude mice were implanted with 5×10^6 tumor cells in a 50:50 mix of RPMI:Matrigel subcutaneously in the right flank of each mouse. […]

malignant glioma cells = experiment: Viability of human tumor cell lines; format: cell-based
Description: (§6) The results are set forth below.

leukemias = experiment: Activity spectra, MTT assay; format: cell-based, human
Method: as §4

[7] = test system: MDA-MB-231 human breast carcinoma; experiment: Xenograft efficacy in nude mice; format: in vivo
Method: MDA-MB-231 human breast carcinoma bearing mice were treated with 200 mg/kg Kevetrin IV days 7, 9, and 11 compared to 22 mg/kg Taxol IV Days 7, 9, 11 and 13.
as §1, §2, §5

[8] = test system: DU-145, HCT-116, or HT-29 carcinoma cells; experiment: Time dependence of Kevetrin cytotoxicity, MTT assay; format: cell-based, human; details: exposure 5 minutes to 120 hours; DU-145, HCT-116, HT-29
Method: Human carcinoma cells were exposed to different concentrations of Kevetrin for 5, 10, 20, 30, or 45 minutes or 1, 2, 6, 24, or 120 hours. Cellular viability expressed as IC50 was plotted verses time of Kevetrin exposure as measured using the MTT assay.
To determine the influence of exposure time on the cytotoxic effects of Kevetrin, DU-145, HCT-116, or HT-29 carcinoma cells were exposed to different concentrations of Kevetrin for 5, 10, 20, 30, or 45 minutes or 1, 2, 6, 24, or 120 hours. […] The time dependence was particularly dramatic for exposure times […]. In contrast, extending the drug exposure time beyond 24 hours had no influence on the cytotoxicity.

[9] = test system: PC-3 human prostate cancer; experiment: Xenograft efficacy in nude mice; format: in vivo
Method: PC-3 tumor bearing nude mice were treated with either 200 mg/kg Kevetrin IV on Days 7, 9, 11 or 10 mg/kg cisplatin on Day 7.
as §1, §2, §5

SKOV-3 = experiment: Cytotoxicity of Kevetrin, cell viability (MTT); format: cell-based; details: Homo sapiens, SK-OV-3; SKOV-3 ovarian carcinoma; continuous exposure for three doubling times; read-out: IC50 Concentration
Description: as §6

HCT-116 = experiment: Cytotoxicity of Kevetrin, cell viability (MTT); format: cell-based; details: Homo sapiens; HCT-116 colon carcinoma; continuous exposure for three doubling times; read-out: IC50 Concentration
Description: as §6

SW-480 = experiment: Cytotoxicity of Kevetrin, cell viability (MTT); format: cell-based; details: Homo sapiens, SW480; SW-480 colon carcinoma; continuous exposure for three doubling times; read-out: IC50 Concentration
Description: as §6

SCC 15 = experiment: Cytotoxicity of Kevetrin, cell viability (MTT); format: cell-based; details: Homo sapiens; SCC 15 squamous cell carcinoma; continuous exposure for three doubling times; read-out: IC50 Concentration
Description: as §6

LnCap = experiment: Cytotoxicity of Kevetrin, cell viability (MTT); format: cell-based; details: Homo sapiens; LnCap prostate carcinoma; continuous exposure for three doubling times; read-out: IC50 Concentration
Description: as §6

SCC-61 = experiment: Cytotoxicity of Kevetrin, cell viability (MTT); format: cell-based; details: Homo sapiens; SCC-61 squamous cell carcinoma; continuous exposure for three doubling times; read-out: IC50 Concentration
Description: as §6

HT-29 = experiment: Cytotoxicity of Kevetrin, cell viability (MTT); format: cell-based; details: Homo sapiens; HT-29 colon carcinoma; continuous exposure for three doubling times; read-out: IC50 Concentration
Description: as §6

DU-145 = experiment: Cytotoxicity of Kevetrin, cell viability (MTT); format: cell-based; details: Homo sapiens; DU-145 prostate carcinoma; continuous exposure for three doubling times; read-out: IC50 Concentration
Description: as §6

MCF-7 = experiment: Cytotoxicity of Kevetrin, cell viability (MTT); format: cell-based; details: Homo sapiens, MCF7; MCF-7 breast carcinoma; continuous exposure for three doubling times; read-out: IC50 Concentration
Description: as §6

Colo 205 = experiment: Cytotoxicity of Kevetrin, cell viability (MTT); format: cell-based; details: Homo sapiens; Colo 205 colon carcinoma; continuous exposure for three doubling times; read-out: IC50 Concentration
Description: as §6

[10] = Taxol 22 mg/kg IV days 7, 9, 11, 13
[11] = 200 mg/kg Kevetrin IV days 7, 9, 11

CC(=O)O[C@H]1C(=O)[C@@]2(C)[C@H]([C@H](OC(=O)c3ccccc3)[C@]3(O)C[C@H](OC(=O)[C@H](O)[C@@H](NC(=O)c4ccccc4)c4ccccc4)C(C)=C1C3(C)C)[C@]1(OC(C)=O)CO[C@@H]1C[C@@H]2O [Taxol, reference compound]
effect on the cancer (in words) [1, 10]: limited effect | tumor growth delay [1, 10]: about 9 days | effect on the cancer (in words) [2, 10]: no effect | effect on the cancer (in words) [3, 10]: little effect

N.N.[Cl][Pt][Cl] [cisplatin, reference compound]
activity toward head and neck cancer cell lines [4]: active toward one of the three cell lines | IC50 ([5]; MTT assay, continuous exposure for three doubling times): 2.1 µM

Cl.N#CCCCSC(=N)N [Kevetrin, S-(3-cyanopropyl)isothiourea hydrochloride]
weight loss of the body weight ([6]; 100 mg/kg intravenously on days 7, 9, and 11, tumor bearing mice): 6.8% | weight loss of the body weight ([6]; 200 mg/kg intravenously on days 7, 9, and 11, tumor bearing mice): 9.3% | tumor growth delay more than the untreated controls [1, 11]: about 24 days | tumor growth delay more than the untreated control (HT-29 colon carcinoma; [11]): 33 days | tumor growth delay more than the 5-FU treated animals (HT-29 colon carcinoma; 200 mg/kg Kevetrin IV days 7, 9, 11 vs 5-FU): 10 days | IC50 (malignant glioma cells): ~0.03 µg/mL | activity toward head and neck cancer cell lines [4]: showed activity toward all of the cell lines | activity toward leukemias (leukemias): comparatively limited activity | tumor growth delay more than the untreated control [7, 11]: 32 days | tumor growth delay more than the Taxol treated animals ([7]; 200 mg/kg Kevetrin IV days 7, 9, 11 vs 22 mg/kg Taxol IV days 7, 9, 11, 13): 12 days | tumor growth delay more than the untreated controls [2, 11]: about 26 days | time dependence of cytotoxicity [8]: Clear time-dependent cytotoxic effects | tumor growth delay more than the untreated control [9, 11]: 34 days | tumor growth delay more than the Cisplatin treated animals ([9]; 200 mg/kg Kevetrin IV days 7, 9, 11 vs 10 mg/kg Cisplatin IP day 7): 8 days | tumor growth delay more than the Taxol treated and the untreated control [3, 11]: 15 days | IC50 (SKOV-3): 58 µg/mL | IC50 (HCT-116): 21 µg/mL | IC50 (SW-480): 62 µg/mL | IC50 (SCC 15): 12 µg/mL | IC50 (LnCap): 52 µg/mL | IC50 (SCC-61): 64 µg/mL | IC50 (HT-29): 29 µg/mL | IC50 (DU-145): 64 µg/mL | IC50 (MCF-7): 68 µg/mL | IC50 (Colo 205): 6 µg/mL | IC50 ([5]; Homo sapiens): 0.49 µM
